For experiment [1], the target named is T1, PfATP6 (Plasmodium falciparum, UniProt Q08853). Nature of the experiment: In vitro activity assay, PfATP6 (membrane-bound). Format: biochemical. The arrangement: pUGpd containing the yeast-optimized coding region of PfATP6 from Plasmodium falciparum; expressed in transfected cells. As to conditions: 1 μM free calcium. The method, then:
Activity assays were performed as described by Longland et al. ([55]) and LeBel et al. ([56]), except that the reaction mixtures were incubated at 30°C instead of 37°C. […] Then, 5.8 mM ATP was added and incubated for an additional 15 min at 30°C. The reaction was stopped with 0.5 mL 6.5% trichloroacetic acid (TCA) on ice, and the mixture was centrifuged at 4°C for 10 min at 16,000 × g; 0.5 mL of the supernatant was added to 1.5 mL of copper acetate buffer (0.25% copper sulfate pentahydrate, 4.6% sodium acetate trihydrate, dissolved in 2 M acetic acid [pH 4.0]) and mixed by vortex-mixing before the addition of 0.25 mL of 5% ammonium molybdate, followed by 0.25 mL METOL buffer (2% p-methyl-aminophenol sulfate, 5% sodium sulfite). Samples were incubated for 10 min, and the absorbance was measured at 870 nm in a spectrophotometer. The Pi standard was 0.4387 g/100 mL KH2PO4.

Experiment [2] addresses T1, PfATP6. Kind of experiment: Yeast whole-cell growth inhibition (functional rescue) assay, K667[PfATP6]. In kind it is cell-based. The arrangement: pUGpd containing the yeast-optimized coding region of PfATP6 from Plasmodium falciparum; expressed in transfected cells; host or cells: Saccharomyces cerevisiae K667 and K667Δpdr5::HIS. On the procedure:
The screening assay used here was developed from the protocol used by Pulcini et al. ([13]). A single colony of the yeast strain to be screened was picked and grown in 5 mL of selective medium until stationary phase was reached. The culture was diluted 100-fold in ampicillin-supplemented yeast extract-peptone-dextrose (YPD) medium to an OD at 620 nm (OD620) equivalent to that of lag phase. YPD medium was supplemented with an appropriate concentration of calcium, depending on the transformed strain. […] The optimal calcium concentration was periodically monitored and, if necessary, adjusted using a calcium concentration range of 10 to 30 mM. A final volume of 200 μL of the yeast culture was added to each well of a 96-well plate, with 5 technical replicates included per inhibitor. All inhibitors were dissolved in dimethyl sulfoxide (DMSO) unless otherwise stated. […] The 96-well plates were incubated at 30°C for 42 h. The yeast growth was estimated from the absorbance at 620 nm in a Tecan plate reader. Growth was normalized with the no-drug control to present data as percent growth. The data collected were analyzed using GraphPad Prism v9.0 (GraphPad software, San Diego, CA, U.S.A).

Results on one compound are retold here after PMC9112895, “Selective Inhibition of Plasmodium falciparum ATPase 6 by Artemisinins and Identification of New Classes of Inhibitors after Expression in Yeast” (Antimicrobial Agents and Chemotherapy, 2022).

T1 sequence (Q08853 whole entry): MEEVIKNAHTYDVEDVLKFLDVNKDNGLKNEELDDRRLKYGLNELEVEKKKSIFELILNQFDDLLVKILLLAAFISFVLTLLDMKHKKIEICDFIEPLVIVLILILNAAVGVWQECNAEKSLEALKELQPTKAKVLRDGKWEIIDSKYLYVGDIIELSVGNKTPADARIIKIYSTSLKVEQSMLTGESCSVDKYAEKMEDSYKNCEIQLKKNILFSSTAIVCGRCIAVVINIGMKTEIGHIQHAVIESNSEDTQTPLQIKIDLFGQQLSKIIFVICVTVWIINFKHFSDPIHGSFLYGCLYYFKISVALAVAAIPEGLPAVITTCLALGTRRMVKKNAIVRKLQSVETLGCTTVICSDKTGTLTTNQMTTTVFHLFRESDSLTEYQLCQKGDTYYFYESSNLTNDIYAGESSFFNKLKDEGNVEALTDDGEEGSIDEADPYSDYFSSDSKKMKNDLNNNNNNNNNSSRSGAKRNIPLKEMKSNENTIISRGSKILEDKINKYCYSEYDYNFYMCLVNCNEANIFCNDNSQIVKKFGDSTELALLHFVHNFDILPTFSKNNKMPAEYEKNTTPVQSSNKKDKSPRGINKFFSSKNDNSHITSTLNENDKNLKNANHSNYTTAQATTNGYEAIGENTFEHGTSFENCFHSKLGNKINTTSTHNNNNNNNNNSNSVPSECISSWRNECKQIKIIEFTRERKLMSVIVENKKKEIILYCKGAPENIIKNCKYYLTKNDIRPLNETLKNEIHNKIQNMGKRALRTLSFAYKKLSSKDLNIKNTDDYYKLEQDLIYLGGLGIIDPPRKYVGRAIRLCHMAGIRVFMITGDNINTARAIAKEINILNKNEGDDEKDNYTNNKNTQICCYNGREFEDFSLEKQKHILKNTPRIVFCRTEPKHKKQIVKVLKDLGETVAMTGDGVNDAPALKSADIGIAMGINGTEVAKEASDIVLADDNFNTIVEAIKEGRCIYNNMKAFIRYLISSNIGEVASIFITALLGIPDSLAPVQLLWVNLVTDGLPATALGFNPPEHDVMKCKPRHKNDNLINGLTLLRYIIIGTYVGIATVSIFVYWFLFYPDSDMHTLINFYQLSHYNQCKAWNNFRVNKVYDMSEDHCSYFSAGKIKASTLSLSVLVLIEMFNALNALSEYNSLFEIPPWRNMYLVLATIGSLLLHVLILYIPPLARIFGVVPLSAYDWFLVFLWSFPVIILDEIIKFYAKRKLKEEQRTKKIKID

As for `CC(=O)C1=C(O)[C@@H]2[C@H]3c4c[nH]c5cccc(c45)C[C@H]3C(C)(C)N2C1=O` [CPA, cyclopiazonic acid], the “in vitro activity of PfATP6 versus no drug control” value on PfATP6 [1] is reported as “No significant”. For the same compound, inhibition against PfATP6 [2] was half-maximal at 11.6 µM (IC50).
